Assay results taken from ChEMBL document CHEMBL1125692 (J Med Chem, 1991).

Assays:
D(2) dopamine receptor [1] = target: T1, D(2) dopamine receptor (Rattus norvegicus, UniProt P61169); assay: Displacement of [3H]- spiperone from dopamine receptor D2 of striatal membranes without sodium chloride
D(2) dopamine receptor [2] = target: T1, D(2) dopamine receptor; assay: Compound was evaluated for binding affinity towards dopamine receptor D2 in striatal membranes, using [3H]- spiperone as radioligand in the presence of sodium chloride; assay type: cell membranes
[3] = target: T2, Adrenergic receptor alpha-2 (Rattus norvegicus, UniProt P22086+P19328+P22909); assay: binding affinity towards alpha-2 adrenergic receptor, using [3H]- atipamezole as radioligand from rat frontal cortex membranes; assay type: tissue-based
T2 sequence (P22086 whole entry): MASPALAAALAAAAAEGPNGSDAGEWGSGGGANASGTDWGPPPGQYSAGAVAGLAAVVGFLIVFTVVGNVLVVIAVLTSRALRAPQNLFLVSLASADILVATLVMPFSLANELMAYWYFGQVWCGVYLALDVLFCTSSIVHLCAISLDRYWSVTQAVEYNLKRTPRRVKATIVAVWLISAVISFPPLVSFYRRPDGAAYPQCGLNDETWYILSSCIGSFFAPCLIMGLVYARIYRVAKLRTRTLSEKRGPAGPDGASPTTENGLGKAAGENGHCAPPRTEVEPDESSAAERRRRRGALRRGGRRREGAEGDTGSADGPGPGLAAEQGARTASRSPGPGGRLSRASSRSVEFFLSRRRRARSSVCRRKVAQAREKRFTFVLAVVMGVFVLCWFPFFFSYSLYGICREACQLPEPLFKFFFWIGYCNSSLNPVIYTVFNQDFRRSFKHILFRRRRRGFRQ
T2 sequence (P19328 whole entry): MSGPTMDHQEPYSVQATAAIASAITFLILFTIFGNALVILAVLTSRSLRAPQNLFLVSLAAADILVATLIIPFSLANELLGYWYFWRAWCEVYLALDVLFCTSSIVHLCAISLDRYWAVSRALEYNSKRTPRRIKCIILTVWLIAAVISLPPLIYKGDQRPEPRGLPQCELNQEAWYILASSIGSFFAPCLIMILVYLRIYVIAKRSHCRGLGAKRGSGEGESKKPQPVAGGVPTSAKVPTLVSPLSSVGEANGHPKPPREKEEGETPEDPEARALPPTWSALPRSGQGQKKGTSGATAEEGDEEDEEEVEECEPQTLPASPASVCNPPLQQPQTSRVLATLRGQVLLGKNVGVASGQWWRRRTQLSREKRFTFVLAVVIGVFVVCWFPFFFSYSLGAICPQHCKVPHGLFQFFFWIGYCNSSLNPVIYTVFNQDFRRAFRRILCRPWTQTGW
T2 sequence (P22909 whole entry): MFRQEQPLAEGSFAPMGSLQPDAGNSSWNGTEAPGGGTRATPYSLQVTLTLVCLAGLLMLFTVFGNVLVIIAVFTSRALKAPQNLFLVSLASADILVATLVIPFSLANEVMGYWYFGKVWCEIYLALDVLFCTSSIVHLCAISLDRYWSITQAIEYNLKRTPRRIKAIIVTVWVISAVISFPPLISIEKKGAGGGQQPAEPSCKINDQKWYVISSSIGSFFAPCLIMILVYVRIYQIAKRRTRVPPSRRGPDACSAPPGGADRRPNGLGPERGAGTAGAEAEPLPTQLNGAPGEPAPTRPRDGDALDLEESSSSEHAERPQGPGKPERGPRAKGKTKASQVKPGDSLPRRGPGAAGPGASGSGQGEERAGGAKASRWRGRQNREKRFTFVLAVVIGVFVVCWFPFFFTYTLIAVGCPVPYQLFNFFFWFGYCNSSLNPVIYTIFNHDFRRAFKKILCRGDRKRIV

T1 sequence (P61169 whole entry): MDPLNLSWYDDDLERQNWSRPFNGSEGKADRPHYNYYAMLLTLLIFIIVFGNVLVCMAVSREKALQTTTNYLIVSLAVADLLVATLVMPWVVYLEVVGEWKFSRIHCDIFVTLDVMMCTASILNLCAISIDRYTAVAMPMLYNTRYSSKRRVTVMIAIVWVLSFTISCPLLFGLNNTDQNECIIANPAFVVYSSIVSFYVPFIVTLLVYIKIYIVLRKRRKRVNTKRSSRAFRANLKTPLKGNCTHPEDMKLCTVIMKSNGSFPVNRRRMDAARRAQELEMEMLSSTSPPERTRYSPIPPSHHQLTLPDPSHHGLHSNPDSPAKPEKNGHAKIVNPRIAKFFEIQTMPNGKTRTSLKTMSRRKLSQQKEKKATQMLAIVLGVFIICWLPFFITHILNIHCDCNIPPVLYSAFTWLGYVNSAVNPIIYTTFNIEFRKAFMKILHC

Compound	Ki (D(2) dopamine receptor [1])	Ki (D(2) dopamine receptor [2])	Ki [3]
CCN1CCC[C@@H]1CNC(=O)c1cc(CCF)cc(OC)c1OC	> 10000 nM		
CCN1CCC[C@@H]1CNC(=O)c1c(O)c(CCCF)cc(OC)c1OC	> 10000 nM		
CCN1CCC[C@H]1CNC(=O)c1cc(CCF)cc(OC)c1OC	5.27 nM	1.41 nM	
CCN1CCC[C@H]1CNC(=O)c1cc(Br)cc(OC)c1OC	0.76 nM	0.2 nM	
CCN1CCC[C@H]1CNC(=O)c1cccc(OC)c1OC	66 nM		
CCCc1cc(OC)c(OC)c(C(=O)NC[C@@H]2CCCN2CC)c1O	1.28 nM		
CCN1CCC[C@H]1CNC(=O)c1c(O)c(CCCF)cc(OC)c1OC	0.8 nM	0.25 nM	11.1 nM
CCN1CCC[C@H]1CNC(=O)c1cc(CCCF)cc(OC)c1OC	4.4 nM	1.17 nM	
CCN1CCC[C@H]1CNC(=O)c1c(O)c(CCF)cc(OC)c1OC	0.77 nM	0.24 nM	9.5 nM
CCCc1cc(OC)c(OC)c(C(=O)NC[C@@H]2CCCN2CC)c1	6.98 nM		
CCN1CCC[C@H]1CNC(=O)c1cc(I)cc(OC)c1OC [EPIDEPRIDE]		0.27 nM	5 nM
